The text below walks through data of PubChem BioAssay (NCI).

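Compound exposure: 48 hours, 5 concentrations, 96-well plates. Definition used: TGI = concentration required for complete inhibition of growth.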

Holding throughout (assay): growth of human tumour cells (NCI), 48 h
In experiment [1] the test system is A498 renal.
In experiment [2] the test system is ACHN renal.
Experiment [3] concerns EKVX NSCLC.
In experiment [4] the test system is HCT-116 colon.
Experiment [5] has as its system IGROV1 ovarian.
Experiment [6] relates to KM12 colon.
Experiment [7] has as its system LOX IMVI melanoma.
The subject of experiment [8] is M14 melanoma.
Experiment [9] relates to MALME-3M melanoma.
For experiment [10], the system named is MDA-MB-435.
The test system of experiment [11] is OVCAR-5 ovarian.
Experiment [12] deals with RPMI-8226 leukemia.
For experiment [13], the system named is SF-539 CNS.
Experiment [14] has as its system T-47D breast.

Turning to `Cc1c(-c2ccc(O)cc2)n(CCCCCCNCCOC(=O)NCCCc2ccc(N(CCCl)CCCl)cc2)c2ccc(O)cc12`, the TGI in experiment [1] was determined as 28.7 µM; in experiment [2], 14.1 µM; in experiment [3], 9.89 µM; in experiment [4], 2.94 µM; in [5], 5.9 µM; in [6], 3.75 µM. Besides, the TGI in experiment [7] is 2.97 µM; in experiment [8], 3 µM; in [9], 3.12 µM; in experiment [10] it was 3.21 µM; in experiment [11], 28.9 µM; in experiment [12], 2.98 µM. Besides, the TGI in experiment [13] was found to be 3.11 µM; in experiment [14], 5.8 µM.
As for `CC(=O)c1cccc(Nc2nc3ccccc3c3occc23)c1`, the TGI in [1] is 30.5 µM; in experiment [2] it was 39.9 µM; in experiment [3] it was greater than 100 µM; in experiment [4], 50 µM; in [6] it was greater than 100 µM; in [7] it was greater than 100 µM. Moreover, the TGI is greater than 100 µM in experiment [8]; 53 µM in experiment [9]; greater than 100 µM in [10]; greater than 100 µM in experiment [11]; greater than 100 µM in [12]; 35.6 µM in experiment [13]. In experiment [14], the TGI was greater than 100 µM.
For `CSC1=C(C#N)C(=S)N=C(N)C1C(=O)Nc1ccc(C)cc1` (centres undefined), the TGI in experiment [1], in experiment [3], in [4], in [5], in experiment [6] and in [7] was greater than 100 µM throughout. Besides, the TGI in [8], in [9], in experiment [10], in experiment [11], in [12] and in experiment [13] was greater than 100 µM throughout. In experiment [14], this compound came in with a TGI greater than 100 µM.
As for `O=c1c2cccnc2n2n1Cc1ccccc1C2`, the TGI in experiment [1], in experiment [2], in experiment [3], in experiment [4], in [5] and in experiment [7] was greater than 100 µM in each case. Also, the TGI in experiment [9], in [10], in experiment [11], in [12], in [13] and in experiment [14] was greater than 100 µM in each case.
For the compound `NC(=O)C(=CNC(N)=S)C(N)=O`, the TGI in experiment [1], in [2], in experiment [3], in experiment [4], in [5] and in experiment [6] was greater than 100 µM throughout. Besides, the TGI in [7], in [8], in experiment [9], in [10], in [11] and in experiment [12] was greater than 100 µM in each case. Also, the TGI in experiment [13] and in experiment [14] was greater than 100 µM in each case.
As for `C=Cc1nc2c(Cl)ncnc2n1Cc1ccccc1`, the TGI in [1] was 22.4 µM; in experiment [2], 3.59 µM; in experiment [3] it was 10.3 µM; in experiment [4] it was 4.72 µM; in [5], 10.9 µM; in [6], 11.5 µM. Besides, the TGI in experiment [7] was determined as 8.44 µM; in experiment [8] it was 15.7 µM; in experiment [9], 15.1 µM; in experiment [10] it was 10.1 µM; in experiment [11] it was 30.5 µM; in experiment [12], 18.3 µM. Further, the TGI in experiment [13] was determined as 8.77 µM; in experiment [14], 6.75 µM.
As to `COc1ccc(N2CN3OC(=O)N(c4ccc(OC)cc4)[C@@]3(c3ccccc3)C2)cc1`, the TGI in experiment [1], in experiment [2], in experiment [3], in experiment [4], in experiment [5] and in experiment [6] was greater than 100 µM each time. For the same compound, the TGI is greater than 100 µM in experiment [7]; greater than 100 µM in experiment [8]; greater than 100 µM in [9]; 7.12 µM in experiment [10]; greater than 100 µM in [11]; greater than 100 µM in experiment [12]. Further, the results for the TGI in experiment [13] and in [14] were greater than 100 µM and 69.2 µM, respectively.
`Cc1ccc(Nc2nc(=O)c3c4ccccc4n(C(=O)OC(C)(C)C)c3s2)cc1`: the TGI was greater than 100 µM in [1]; greater than 100 µM in experiment [2]; greater than 100 µM in experiment [3]; greater than 100 µM in [5]; 54.5 µM in experiment [6]; 46.7 µM in [7]. In addition, the TGI in experiment [8] is 44.1 µM; in experiment [9] it was 66.3 µM; in experiment [10], 38.1 µM; in [11], 48.3 µM; in [12] it was 48.7 µM; in [13], 79.8 µM. For the same compound, the TGI in experiment [14] is greater than 100 µM.
Turning to `O=C1C=Cc2c(Br)sc(Br)c21`, the TGI in experiment [1] is greater than 100 µM; in experiment [2] it was 57.7 µM; in experiment [3] it was 81 µM; in [4], 77.1 µM; in [5], 43.5 µM; in experiment [6] it was greater than 100 µM. Moreover, the TGI in experiment [7] is 48.4 µM; in [8], 84.4 µM; in [9], 64.6 µM; in experiment [10], 46.1 µM; in experiment [11], greater than 100 µM; in [12], 46.3 µM. For the same compound, the TGI was greater than 100 µM in [13] and 81.8 µM in [14].
For `O=C1N(C2CCCCC2)C(=O)N1C1CCCCC1`, the TGI is 2.37 µM in experiment [1]; 12 µM in [2]; greater than 100 µM in [3]; 14.1 µM in experiment [4]; greater than 100 µM in [5]; 15.7 µM in experiment [6]. In addition, the TGI in experiment [7] is 11.1 µM; in experiment [8] it was 20.7 µM; in experiment [9], 11.7 µM; in [10], greater than 81.4 µM; in experiment [11], 30.2 µM; in [12], 0.935 µM. Besides, the TGI in [13] came to 45.1 µM; in [14], 17.4 µM.
`O=c1ccn([C@@H]2C[C@H]2CO)c(=O)[nH]1`: the TGI in [1], in experiment [2], in experiment [3], in experiment [4], in experiment [5] and in [6] was greater than 100 µM each time. Besides, the TGI in [7], in [8], in experiment [9], in experiment [10], in [11] and in experiment [12] was greater than 100 µM in each case. Also, the TGI in experiment [13] and in [14] was greater than 100 µM throughout.
